Earlier results in US11672863B2, “Enhanced solubility drug-containing formulations” (United Therapeutics Corporation, priority 2017, dated 2023).
Where a name gives a salt, the structure may show the parent alone.

Settings: in water between pH 1.8 and 6

- solubility: 40 to 50 mg/mL
SMILES: CCCCN1CCCCC1C(=O)Nc1c(C)cccc1C (stereo not shown) [bupivacaine hydrochloride monohydrate]
